Tests used:
[1] = test system: HSV-2 (strain G); experiment: Viral plaque inhibition assay, zeolite coincubated with HSV-2, supernatants added to cells; format: cell-based; settings: keratinocytes, supernatants of HSV-2 coincubated 18 hours with 5 μg/ml zeolite or 50 μg/ml Acyclovir, Mordenite 0.1-0.5 μm, P, X, A 0.5-5 μm
Procedure: (§1) Testing of Antiviral Activities of Synthetic Zeolites by the Viral Plaque Inhibition Assay—the Antiviral Activity of Zeolites when Coincubated with HSV In Vitro
(§2) Epidermal cell cultures of fibroblasts and keratinocytes were grown in vitro from healthy skin samples, remnants from operations. Fibroblast cultures were grown in Dulbecco modified Eagle's medium (DMEM) containing Glutamax I (L-alanin-L-glutamine) and sodium pyruvate, […] and pyridoxine, supplemented with 10% fetal calf serum (FCS), 0.25 μg gentamycin and 100 UI/L penicillin. Keratinocytes are grown in a mixture of DMEM, Hams F12 in the 3:1 ratio with the addition of Glutamax I, complemented with 9% of FCS, epidermal growth factor (EGF), insulin, hydrocortisone, triiodothyronine, adenine, and antibiotics. The antiviral effect was determined on primary cells (primary fibroblasts and keratinocytes) grown in vitro from the explants of healthy skin, and also on cell lines: fibroblasts cell line MRC-5, HEp-2 cell line, and Vero cell line.
(§3) MRC-5, Vero, HEp-2, and keratinocyte cell lines were all obtained from the American Type Culture Collection-ATCC, and grown in T-75 flasks at 37° C. in a humidified incubator with 5% CO2.
(§4) HSV-1 (strain F) and HSV-2 (strain G), both obtained from the ATCC, were propagated in HEp-2 cells and their titres checked in same cells (H. Kirchner, C. Kleinicke, H. Northoff. J. Gen. Virol. 1977, 37, 647.). 0.1, 0.5, 1, 2, 4, or 5 Multiplicity of infection (MOI) of HSV-1 or HSV-2 was used to infect Vero cells, keratinocyte cell lines and MRC-5 cell lines, as described below.
(§5) Synthetic zeolites: A, Mordenite, P and X were tested in vitro for an anti HSV activity. Mordenite was used in two characteristic size of particles (0.1-0.5 μm and 0.5-5 μm) and other zeolites in 0.5-5 μm particle size. Zeolites were used in the concentrations of 5, 50, 500 ng/ml; 1, 5, 50, 100, 500 μg/ml; 1, 2, 10, 50 mg/ml in growth medium.
(§6) The ability of HSV preincubated with zeolite to infect cells permissive to infection (permissive cells) and cell lines was tested in in vitro experiments.
(§7) Viral stock containing the HSV-1 or HSV-2 (in MOI described above), diluted in a minimal volume of growth medium containing 5% FCS was used for the coincubation with zeolite for 3-20 hours at 4° C. The pH was maintained at all times to be at around 7.00. The sterile cuvettes containing zeolite+HSV were then centrifuged at 4.000 rpm/30 minutes to remove any particulate content in supernatants. Those supernatants (in 200 μl volume) were then added to the MRC-5, HEp-2, or Vero cell lines (grown in 24 well plate to 85% confluency) for 1 hour at 37° C. Parallel cultures contained cells infected with 200 μl of HSV-1 or HSV-2 under the same conditions as for the addition of supernatants (above). After one hour incubation, the growth medium containing 9% FCS was added, and cells cultivated for another 3 days (to examine for any CPE by light microscopy). Growth medium was then aspirated from the wells, and 100 μl of 0.2% crystal violet dye, diluted in phosphate buffered saline (PBS), was added to each well. After half-hour exposure to the dye, the wells were washed twice with double distilled water, air-dried, and the HSV plaques in cell cultures were counted using Olympus light microscope (magnification of 40×). The CPE produced by the infection of permissive cells was characterised by morphological changes in host cells e.g. cell rounding, swelling, detachment from the surface, formation of syncicia, plaques, caused by the increased number of newly formed viral particles. Plaques formed by HSV destroying cells were easily distinguished from unaffected cell layers.

[2] = test system: HSV-1 (strain F); experiment: Viral plaque inhibition assay, zeolite coincubated with HSV-1, supernatants added to cells; format: cell-based; settings: keratinocytes, supernatants of HSV-1 coincubated 18 hours with 5 μg/ml zeolite or 50 μg/ml Acyclovir, Mordenite 0.1-0.5 μm, P, X, A 0.5-5 μm
Procedure: as §1, §2, §3, §4, §5, §6, §7

[3] = background statement; cited from earlier work

## Nc1nc2c(ncn2COCCO)c(=O)[nH]1 [Acyclovir, 9-[(2-hydroxyetoxy)methyl]guanine]
[1]; 0.1 MOI
  decrease in percentage of number of HSV-2 plaques: 73%
[1]; 0.5 MOI
  decrease in percentage of number of HSV-2 plaques: 72%
[1]; 1 MOI
  decrease in percentage of number of HSV-2 plaques: 70%
[1]; 2 MOI
  decrease in percentage of number of HSV-2 plaques: 65%
[1]; 4 MOI
  decrease in percentage of number of HSV-2 plaques: 48%
[1]; 5 MOI
  decrease in percentage of number of HSV-2 plaques: 42%
[2]; 0.1 MOI
  decrease in number of HSV-1 plaques: 71
[2]; 0.5 MOI
  decrease in number of HSV-1 plaques: 71
[2]; 1 MOI
  decrease in number of HSV-1 plaques: 61
[2]; 2 MOI
  decrease in number of HSV-1 plaques: 58
[2]; 4 MOI
  decrease in number of HSV-1 plaques: 43
[2]; 5 MOI
  decrease in number of HSV-1 plaques: 36

## CC(=O)OCC(CCn1cnc2cnc(N)nc21)COC(C)=O [famcyclovir]
[3]
  biavalibility of the drug: 77%

## CC(C)[C@H](N)C(=O)OCCOCn1cnc2c(=O)[nH]c(N)nc21 [valacyclovir]
[3]
  biavalibility of the drug: 55%

— patent US20110081405A1, “Zeolite Formulation And Use Thereof For The Prevention And Therapy Of Diseases Caused By Infections With Herpes Simplex Virus Type 1 And Type 2” (priority 2008, published 2011)
